According to patent publication US20050131061A1, “Angiogenesis inhibitors” (Mercian Corporation, priority 2002, published 2005):
One block for each molecule: values may come before it.

Legend:
[1] = test system: DLD-1 (prostate cancer); assay: Toxicity to cultivated human cancer cells, MTT growth inhibition; assay type: cell-based; details: DLD-1 cells, 72 hours
Protocol: (§1) Note that the tests were performed as follows. Various kinds of human cancer cells (K562 (leukemia), H226 (lung cancer), DLD-1 (prostate cancer) and HT1080 (fibrosarcoma)) were suspended in RPMI1640 medium or DMEM medium containing 10% fetal calf serum and each adjusted to 5×10^3 cells/well, and 0.1 ml of this was seeded on a 96-well microplate. At the same time, a suitable amount of each of the substances F-1491 (substances F-1491A to F-1491H) was added and the resultant was cultivated at 37° C. for 72 hours in an atmosphere containing 5% CO2. Further, 10 μl of 0.5% MTT (3-[4,5-dimethylthiazol-2-yl]2,5-[…] tetrazolium bromide) was added and the resultant was cultivated for 4 hours. After the cultivation, 0.1 ml of 10% SDS-0.01N hydrochloric acid was added and absorbance at 570 nm was measured to determine 50% growth inhibition concentration.

[2] = test system: K562 (leukemia); assay: as above; assay type: cell-based; details: 72 hours
Protocol: as §1

[3] = test system: H226 (lung cancer); assay: as above; assay type: cell-based; details: 72 hours
Protocol: as §1

[4] = test system: HT1080 (fibrosarcoma); assay: as above; assay type: cell-based; details: 72 hours
Protocol: as §1

[5] = Solubility (physicochemical properties)
Protocol: • (1) Form: white powder • (2) Molecular formula: C24H34O3 • (Measurement of C24H35O3 by high resolution FAB mass spectrometry Calculated m/z: 371.2586 (M+H)^+, Found m/z: 371.2580) • (3) Specific optical rotation: [α]D^26−194° (c 0.1, methanol) • (4) Melting point: 55 to 58° C. • (5) Infrared absorption spectrum: The results obtained by measurement by the KBr method are as shown in FIG. 1. […] The chemical shift, multiplicity and spin coupling constant of each signal are shown in Table 1. • (9) ^13C-NMR spectrum: Measurement was performed by dissolving the substance in heavy methanol and using tetramethylsilane as an internal standard. 2. Physicochemical Properties of the Substance F-1491B • (1) Form: white powder • (2) Molecular formula: C23H32O3 • (Measurement of C23H33O3 by high resolution FAB mass spectrometry Calculated m/z: 357.2430 (M+H)^+, Found m/z: 357.2463), • (3) Specific optical rotation: [α]D^26-222° (c 0.1, methanol) • (4) Melting point: 53 to 56° C. • (5) Infrared absorption spectrum: The results obtained by measurement by the KBr method are as shown in FIG. 2. […] The chemical shift, multiplicity, and spin coupling constant of each signal are shown in Table 1. • (9) ^13C-NMR spectrum: Measurement was performed by dissolving the substance in heavy methanol and using tetramethylsilane as an internal standard. 3. Physicochemical Properties of the Substance F-1491C • (1) Form: white powder • (2) Molecular formula: C24H35O3Cl • (Measurement of C24H35O3Cl by high resolution ESI mass spectrometry Calculated m/z: 429.2172 (M+Na)^+, Found m/z: 429.2204) • (3) Ultraviolet absorption spectrum (measured in methanol): […]

[6] = test system: human umbilical cord vein endothelial cells; assay: Inhibition of proliferation of human umbilical cord vein endothelial cells (3H-thymidine incorporation); assay type: cell-based; details: bFGF 10 μg/l, 48 hours + 8 hours 3H-thymidine
Protocol: That is, 0.1 ml of human umbilical cord vein endothelial cells (Cell Systems Corporation) adjusted to 2×10^3 cells/well in MCDB131 medium (Chlorella Industry Co., Ltd.) containing 10 μg/l basic fibroblast cell growth factor and 10% fetal calf serum is seeded on a collagen-coated 96-well microplate (Sumitomo Bakelite Co., Ltd.) and at the same time a suitable amount of sample is added. The resultant is cultivated in an atmosphere containing 5% CO2 at 37° C. for 48 hours. Further, 1 μCi/well ^3H-tymidine is added and cultivation is performed for 8 hours. Then, the cells are collected using a cell harvester and the radioactivity incorporated into cells is measured using a scintillation counter.
When the sample contains an active substance for inhibiting the growth of angioendothelial cells, the incorporation of radioactivity into the cells is suppressed. Further, an effective concentration range of the sample is obtained from the change in radioactivity in the cells depending on the concentration of the sample.

[7] = in methanol, chloroform and dimethyl sulfoxide

- Solubility [5, 7]: Soluble
- Solubility ([5]; in water): hardly soluble
SMILES: CC=C(C)C1C(C=CC=C(C)C(=O)CC)C2CC3OC3(C)CC2C2OC21C (centres unmarked) [F-1491A]
- 50% growth inhibition concentration [1]: >100 mg/L
- 50% growth inhibition concentration [2]: 39 mg/L
- 50% growth inhibition concentration [3]: >100 mg/L
- 50% growth inhibition concentration [4]: >100 mg/L
- 50% growth inhibition concentration [6]: 2.2 mg/L

- Solubility [5, 7]: Soluble
- Solubility ([5]; in water): hardly soluble
SMILES: CC=C(C)C1C(C=CC=C(C)C(C)=O)C2CC3OC3(C)CC2C2OC21C (centres unmarked) [F-1491B]
- 50% growth inhibition concentration [1]: >100 mg/L
- 50% growth inhibition concentration [2]: 36 mg/L
- 50% growth inhibition concentration [3]: >100 mg/L
- 50% growth inhibition concentration [4]: >100 mg/L
- 50% growth inhibition concentration [6]: 3.4 mg/L

SMILES: CC=C(C)C1C(C=CC=C(C)C(=O)CC)C2CC(Cl)C(C)(O)CC2C2OC21C (centres unmarked) [F-1491C]
- 50% growth inhibition concentration [1]: >100 mg/L
- 50% growth inhibition concentration [2]: 52 mg/L
- 50% growth inhibition concentration [3]: >100 mg/L
- 50% growth inhibition concentration [4]: >100 mg/L
- 50% growth inhibition concentration [6]: 7.4 mg/L

SMILES: CC=C(C)C1C(C=CC=C(C)C(C)=O)C2CC(Cl)C(C)(O)CC2C2OC21C (centres unmarked) [F-1491D]
- 50% growth inhibition concentration [1]: >100 mg/L
- 50% growth inhibition concentration [2]: 80 mg/L
- 50% growth inhibition concentration [3]: >100 mg/L
- 50% growth inhibition concentration [4]: >100 mg/L
- 50% growth inhibition concentration [6]: 4.6 mg/L

SMILES: CC=C(C)C1C(C=CC=C(C)C(=O)CC)C2CCC(C)(O)CC2C2OC21C (centres unmarked) [F-1491E]
- 50% growth inhibition concentration [1]: >100 mg/L
- 50% growth inhibition concentration [2]: 68 mg/L
- 50% growth inhibition concentration [3]: >100 mg/L
- 50% growth inhibition concentration [4]: >100 mg/L
- 50% growth inhibition concentration [6]: 3.2 mg/L

SMILES: CC=C(C)C1C(C=CC=C(C)C(C)=O)C2CCC(C)(O)CC2C2OC21C (centres unmarked) [F-1491F]
- 50% growth inhibition concentration [1]: >100 mg/L
- 50% growth inhibition concentration [2]: 72 mg/L
- 50% growth inhibition concentration [3]: >100 mg/L
- 50% growth inhibition concentration [4]: >100 mg/L
- 50% growth inhibition concentration [6]: 9.3 mg/L

SMILES: CC=C(C)C1C(C=CC=C(C)C(C)=O)C2CC(OC)C(C)(O)CC2C2OC21C (centres unmarked) [F-1491G]
- 50% growth inhibition concentration [1]: >100 mg/L
- 50% growth inhibition concentration [2]: 95 mg/L
- 50% growth inhibition concentration [3]: >100 mg/L
- 50% growth inhibition concentration [4]: >100 mg/L
- 50% growth inhibition concentration [6]: 7.7 mg/L

SMILES: CC=C(C)C1C(C=CC=C(C)C(C)=O)C2CC(O)C(C)(O)CC2C2OC21C (centres unmarked) [F-1491H]
- 50% growth inhibition concentration [1]: >100 mg/L
- 50% growth inhibition concentration [2]: 61 mg/L
- 50% growth inhibition concentration [3]: >100 mg/L
- 50% growth inhibition concentration [4]: >100 mg/L
- 50% growth inhibition concentration [6]: 5.6 mg/L
